Measured values from patent publication US9586907B2, “Isothiocyanate compounds, pharmaceutical compositions, and uses thereof” (priority 2006, dated 2017).
In brackets after ≈: the same amount, converted by molar mass. Where two headings read alike, the source gives them in different places.

Tests used:
M. tuberculosis CDC1551 = assay: MIC, M. tuberculosis CDC1551; format: cell-based
Description: Next, several of the bifunctional ITC compounds were tested for their ability to inhibit the growth of some clinical isolates of Mycobacteria, the results of which are summarized in Table 3 below.

[1] = tested on: Aspergillus fumigatus Rit 21; assay: Anti-fungal MIC, Aspergillus fumigatus Rit 21
Bacillus cereus [2] = assay: Bactericidal/bacteriostatic activity (CFU), Bacillus cereus; format: cell-based
Candida albicans 90028 = assay: Anti-fungal MIC, Candida albicans 90028
[3] = tested on: Aspergillus fumigatus Rit 1; assay: Anti-fungal MIC, Aspergillus fumigatus Rit 1
[4] = tested on: Candida parapsilosis 22019; assay: Anti-fungal MIC, Candida parapsilosis 22019
M. avium = assay: MIC, M. avium; format: cell-based; settings: M. avium
[5] = tested on: Candida albicans 5108^mdr; assay: Anti-fungal MIC, Candida albicans 5108^mdr
Staphylococcus aureus = assay: Bactericidal/bacteriostatic activity (CFU), Staphylococcus aureus; format: cell-based; settings: 1 to 2 hours, FIG. 2B
Candida crusei 6258^mdr [6] = assay: microbe, parasite or virus in culture; settings: read-out: Anti-Fungal Activity (MIC)
[7] = tested on: human peritoneal macrophages infected with Mycobacterium tuberculosis H37Rv strain; assay: In vitro infection model, cytotoxicity; settings: up to 1 μg/mL; Rifampicin control
Candida albicans 90030 = assay: Anti-fungal MIC, Candida albicans 90030
[8] = tested on: human acute monocytic leukemia cells (THP1 cells); assay: Growth of THP1 cells, MTT metabolic assay; format: cell-based; settings: Homo sapiens, THP-1, 24 h, read-out: drop in cell viability
Description: THP1 cells were either mock-treated (DMSO vehicle alone), or treated with increasing doses of new compounds 37 and 45, from 0 to 32 μg/mL. Cells were incubated in the presence of compound for 24 hours, and subsequently were assayed for total cell viability using an MTT, metabolic assay.

virus (92TH594) = assay: Viral proliferation in PBMC, p24 viral antigen; format: cell-based; settings: PBMC
Candida dlabrata 250^mdr = assay: Anti-fungal MIC, Candida dlabrata 250^mdr
[9] = tested on: Aspergillus fumigatus Rit 11; assay: Anti-fungal MIC, Aspergillus fumigatus Rit 11
[10] = tested on: Mycobacterium tuberculosis H37Rv strain; assay: In vitro infection model, bacterial growth inhibition in infected macrophages; format: cell-based; settings: M. tuberculosis H37Rv; up to 1 μg/mL; Rifampicin control
Text: Rifampicin was used as a control for this experiment.

[11] = tested on: Cryptococcus neoformans CNH99; assay: Anti-fungal MIC, Cryptococcus neoformans CNH99
Bacillus cereus [12] = assay: Pre-incubation of compound in MHB medium, inhibitory activity against Bacillus cereus; format: cell-based; settings: initial concentration equal to the MIC value; FIG. 5
Description: Preincubation of Compound 37 in Culture Medium and Its Effect on Growth-Inhibitory Activity. Compound 37 was added to liquid Muller-Hinton Broth (MHB) medium in microtiter plate to final concentration 2 mg/ml and incubated for the periods of time indicated in FIG. 5 before addition to cultures of B. cereus. After incubation for 20 h at 37° C., bacterial growth was assessed by measuring of the turbidity at 600 nm.
ITC compounds can react with amine- and thiol-containing components of the culture media with the formation of corresponding thioureas and dithiocarbamates. The effect of pre-incubation of Compound 37 in MHB medium on its inhibitory activity against Bacillus cereus was determined at an initial concentration equal to the MIC value. While no growth of the bacteria occurs upon immediate addition of the inhibitor, progressive growth is observed as a function of pre-incubation time.

[13] = In vivo tolerance in mice; settings: highest dose, 50 mg/kg
Candida crusei 6258^mdr [14] = tested on: Candida crusei 6258^mdr
[15] = compound 2.5 μg/ml, added to the cells after viral infection
[16] = compound 2.5 μg/ml, added to the cells before viral infection
[17] = compound 10 μg/ml, added to the cells after viral infection
[18] = compound 10 μg/ml, added to the cells before viral infection

## S=C=NCc1ccc(CN=C=S)cc1 [Compound 37]
M. tuberculosis CDC1551; Mycobacterium tuberculosis, read-out: MIC
  MIC: 4 µg/mL (≈ 18.2 µM)
[1]; Aspergillus fumigatus, RIT21, read-out: Anti-Fungal Activity (MIC)
  MIC: 0.5 µg/mL (≈ 2.27 µM)
Bacillus cereus [2]; Compound at 4 μg/ml, data not shown
  bacterial growth at 20 h: no bacterial growth was detected
Bacillus cereus [2]; incubation 1 to 2 hours, FIG. 2A
  cell viability of Bacillus cereus (CFU): dramatic decrease in cell viability
Candida albicans 90028; Candida albicans, 90028, read-out: Anti-Fungal Activity (MIC)
  MIC: 0.5 µg/mL (≈ 2.27 µM)
[3]; Aspergillus fumigatus, RIT1, read-out: Anti-Fungal Activity (MIC)
  MIC: 0.5 µg/mL (≈ 2.27 µM)
[4]; 22019, read-out: Anti-Fungal Activity (MIC)
  MIC: 0.5 µg/mL (≈ 2.27 µM)
M. avium; Mycobacterium avium, read-out: MIC
  MIC: 32 µg/mL (≈ 145 µM)
[5]; Candida albicans, read-out: Anti-Fungal Activity (MIC)
  MIC: 0.5 µg/mL (≈ 2.27 µM)
Staphylococcus aureus
  effect on Staphylococcus aureus cultures: bacteriostatic effect
Candida crusei 6258^mdr [6]
  MIC: 0.5 µg/mL (≈ 2.27 µM)
[7]
  cytotoxicity in infected macrophages: exhibited more toxicity
Candida albicans 90030; Candida albicans, 90030, read-out: Anti-Fungal Activity (MIC)
  MIC: 0.5 µg/mL (≈ 2.27 µM)
[8]
  cytotoxicity at 8 µg/mL: ~25%
Virus (92TH594); [15]
  P24 values: 760 pg/mL
Virus (92TH594); [16]
  P24 values: 210 pg/mL
Virus (92TH594); [17]
  P24 values: 340 pg/mL
Virus (92TH594); [18]
  P24 values: 0 pg/mL
Candida dlabrata 250^mdr; Candida, 48 h, read-out: Anti-Fungal Activity (MIC)
  MIC: 0.125 µg/mL (≈ 0.567 µM)
[9]; Aspergillus fumigatus, RIT11, read-out: Anti-Fungal Activity (MIC)
  MIC: 0.5 µg/mL (≈ 2.27 µM)
[10]
  growth inhibitory activity in infected macrophages: gave similar results
[11]; Cryptococcus neoformans, CNH99, read-out: Anti-Fungal Activity (MIC)
  MIC: < 1 µg/mL
Bacillus cereus [12]
  effect of pre-incubation in MHB medium on inhibitory activity: decrease of inhibition potency
[13]
  toxicity in treated mice: no toxicity was observed

## S=C=NCCCCCCCN=C=S [Compound 41, S═C═N—(CH2)7—N═C═S]
M. tuberculosis CDC1551
  MIC: 2 µg/mL (≈ 9.33 µM)
[1]; Aspergillus fumigatus Rit 21
  Anti-Fungal Activity (MIC): 4 µg/mL
Candida albicans 90028; Candida albicans 90028
  Anti-Fungal Activity (MIC): 8 µg/mL
Candida crusei 6258^mdr [14]
  Anti-Fungal Activity (MIC): 2 µg/mL
[3]; Aspergillus fumigatus Rit 1
  Anti-Fungal Activity (MIC): 4 µg/mL
[4]; Candida parapsilosis 22019
  Anti-Fungal Activity (MIC): 2 µg/mL
M. avium
  MIC: 32 µg/mL (≈ 149 µM)
[5]; Candida albicans 5108^mdr
  Anti-Fungal Activity (MIC): 8 µg/mL
Candida albicans 90030; Candida albicans 90030
  Anti-Fungal Activity (MIC): <1 µg/mL
Candida dlabrata 250^mdr; Candida dlabrata 250^mdr
  Anti-Fungal Activity (MIC): <1 µg/mL
[9]; Aspergillus fumigatus Rit 11
  Anti-Fungal Activity (MIC): 4 µg/mL
[11]; Cryptococcus neoformans CNH99
  Anti-Fungal Activity (MIC): <1 µg/mL

## S=C=NCCCCCCCCN=C=S [Compound 42, S═C═N—(CH2)8—N═C═S]
M. tuberculosis CDC1551
  MIC: 8 µg/mL (≈ 35 µM)
M. avium
  MIC: 32 µg/mL (≈ 140 µM)
[7]
  cytotoxicity in infected macrophages: exhibited more toxicity
Virus (92TH594); [15]
  P24 values: 630 pg/mL
Virus (92TH594); [16]
  P24 values: 220 pg/mL
Virus (92TH594); [17]
  P24 values: 700 pg/mL
Virus (92TH594); [18]
  P24 values: 0 pg/mL
[10]
  growth inhibitory activity in infected macrophages: gave similar results
[13]
  toxicity in treated mice: no toxicity was observed
